21 compounds from patent US20250084095A1, “Aminopyrimidine Derivatives as Cyclin-Dependent Kinase Inhibitors” (Accutar Biotechnology Inc., priority 2023, published 2025) can be followed below.

One may read the IC50 as the concentration at which inhibition is half-maximal. By GI50 is commonly meant the concentration that inhibits growth by half.

Bounds are passed on as bounds.

The subject of assay [1] is Phospho-Rb (Ser807/811) in MCF7 cells. Nature of the assay: Phospho-Rb expression inhibition in MCF7 cells quantified by in cell Western. Particulars: Homo sapiens, MCF7, 24 h, 24 hours, in cell Western, read-out: MCF7 pRb IC50. Format: cell-based, human. In outline:
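MCF7 cells were seeded at 20,000/well, grown overnight, then treated 24 h at 37 °C with compound dilutions (0.1% DMSO from 1000× stocks). Fixed cells were co-stained for phospho-Rb Ser807/811 and total Rb. Near-infrared dual-channel in-cell Western imaging was the read-out.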

The next assay deals with 22RV1 cells. Nature of the assay: Cell growth inhibition of 22RV1 cells (CellTiter-Glo). Format: cell-based. Particulars: Homo sapiens, 22Rv1, 120 h, 5 days, CellTiter-Glo, read-out: 22RV1 Cell Growh GI50. In outline:
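22RV1 cells were plated in RPMI1640 with FBS (20% in one version, 10% in the other) and dosed next day at various concentrations from DMSO stocks. After 5 days at 37 °C, viability was measured by CellTiter-Glo luminescence.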
(In general: Cellular ATP, detected with luciferase, serves as a proxy for viable cell number.)

With `CC(C)(O)c1cc2cc(-c3nc(N[C@@H]4C[C@H]5CO[C@H](O5)[C@H]4O)ncc3Cl)cc(F)c2nn1` [Compound 258, (1S,3R,4S,5R)-3-((5-chloro-4-(8-fluoro-3-(2-hydroxypropan-2-yl)cinnolin-6-yl)pyrimidin-2-yl)amino)-6,8-dioxabicyclo[3.2.1]octan-4-ol], the IC50 in assay [1] was over 1 µM. The GI50 in the assay with 22RV1 cells was over 3 µM.

For the compound `Cc1c(-c2nc(N[C@@H]3C[C@H]4CO[C@H](O4)[C@H]3O)ncc2Cl)sc2cc(C(C)(C)O)cnc12` [Compound 260, (1S,3R,4S,5R)-3-((5-chloro-4-(6-(2-hydroxypropan-2-yl)-3-methylthieno[3,2-b]pyridin-2-yl)pyrimidin-2-yl)amino)-6,8-dioxabicyclo[3.2.1]octan-4-ol], the IC50 in assay [1] lay within 0.04 to 0.15 µM. Also, the GI50 with 22RV1 cells fell in the range of 0.12 to 0.45 µM.

In the case of `O[C@@H]1[C@@H]2OC[C@H](C[C@H]1Nc1ncc(Cl)c(-c3cc(F)c4ncc(CN5CCOCC5)cc4c3)n1)O2` [Compound 261, (1S,3R,4S,5R)-3-((5-chloro-4-(8-fluoro-3-(morpholinomethyl)quinolin-6-yl)pyrimidin-2-yl)amino)-6,8-dioxabicyclo[3.2.1]octan-4-ol], the IC50 in assay [1] lay within 0.15 to 1 µM. For the same compound, the GI50 with 22RV1 cells lay within 0.45 to 3 µM.

For `C[C@H]1COC[C@H](C)N1Cc1cnc2c(F)cc(-c3nc(N[C@@H]4C[C@H]5CO[C@H](O5)[C@H]4O)ncc3Cl)cc2c1` [Compound 262, (1S,3R,4S,5R)-3-((5-chloro-4-(3-(((3S,5S)-3,5-dimethylmorpholino)methyl)-8-fluoroquinolin-6-yl)pyrimidin-2-yl)amino)-6,8-dioxabicyclo[3.2.1]octan-4-ol], in assay [1], the 50% inhibitory concentration (IC50) lay within 0.15 to 1 µM. Moreover, in the assay with 22RV1 cells, the GI50 fell in the range of 0.45 to 3 µM.

For the compound `CC(C)[C@@H]1COC(=O)N1c1nc2c(F)cc(-c3nc(N[C@@H]4C[C@H]5CO[C@H](O5)[C@H]4O)ncc3Cl)cc2n1C(C)C` [Compound 263, (R)-3-(6-(5-chloro-2-(((1S,3R,4S,5R)-4-hydroxy-6,8-dioxabicyclo[3.2.1]octan-3-yl)amino)pyrimidin-4-yl)-4-fluoro-1-isopropyl-1H-benzo[d]imidazol-2-yl)-4-isopropyloxazolidin-2-one], in assay [1], the IC50 lay within 0.15 to 1 µM. In addition, the concentration for 50% growth inhibition (GI50) in the assay with 22RV1 cells is over 3 µM.

On to `CC(C)(O)c1cnc2c(F)cc(-c3nc(N[C@@H]4C[C@H]5CO[C@H](O5)[C@H]4O)ncc3Cl)cc2n1` [Compound 264, (1S,3R,4S,5R)-3-((5-chloro-4-(8-fluoro-3-(2-hydroxypropan-2-yl)quinoxalin-6-yl)pyrimidin-2-yl)amino)-6,8-dioxabicyclo[3.2.1]octan-4-ol], for which, in assay [1], the 50% inhibitory concentration (IC50) fell in the range of 0.15 to 1 µM. Also, the GI50 in the assay with 22RV1 cells fell in the range of 0.45 to 3 µM.

Turning to `Cc1c(-c2nc(N[C@@H]3C[C@H]4CO[C@H](O4)[C@H]3O)ncc2F)sc2c(C(C)C)cnnc12` [Compound 266, (1S,3R,4S,5R)-3-((5-fluoro-4-(4-isopropyl-7-methylthieno[3,2-c]pyridazin-6-yl)pyrimidin-2-yl)amino)-6,8-dioxabicyclo[3.2.1]octan-4-ol], the half-maximal inhibitory concentration (IC50) in assay [1] was at most 0.04 µM. Also, in the assay on 22RV1 cells, the 50% growth inhibitory concentration (GI50) is at most 0.12 µM.

Regarding `CC(C)n1c([C@H]2CCOC2)nc2c(F)cc(-c3nc(N[C@@H]4C[C@H]5CO[C@H](O5)[C@H]4O)ncc3Cl)cc21` [Compound 267, (1S,3R,4S,5R)-3-((5-chloro-4-(4-fluoro-1-isopropyl-2-((R)-tetrahydrofuran-3-yl)-1H-benzo[d]imidazol-6-yl)pyrimidin-2-yl)amino)-6,8-dioxabicyclo[3.2.1]octan-4-ol], the half-inhibitory concentration (IC50) in assay [1] lay within 0.04 to 0.15 µM. For the same compound, the GI50 with 22RV1 cells lay within 0.12 to 0.45 µM.

Turning to `Cc1c(CN2C[C@@H](C)OC2=O)n(C(C)C)c2cc(-c3nc(N[C@@H]4C[C@H]5CO[C@H](O5)[C@H]4O)ncc3F)ccc2c1=O` [Compound 271, (R)-3-((7-(5-fluoro-2-(((1S,3R,4S,5R)-4-hydroxy-6,8-dioxabicyclo[3.2.1]octan-3-yl)amino)pyrimidin-4-yl)-1-isopropyl-3-methyl-4-oxo-1,4-dihydroquinolin-2-yl)methyl)-5-methyloxazolidin-2-one], the half-inhibitory concentration (IC50) in assay [1] lay within 0.15 to 1 µM. Moreover, the GI50 in the assay with 22RV1 cells is over 3 µM.

Consider `CC(C)n1c(N2CCOC2=O)nc2c(F)cc(-c3nc(N[C@@H]4C[C@H]5CO[C@H](O5)[C@H]4O)ncc3Cl)cc21` [Compound 272, 3-(6-(5-chloro-2-(((1S,3R,4S,5R)-4-hydroxy-6,8-dioxabicyclo[3.2.1]octan-3-yl)amino)pyrimidin-4-yl)-4-fluoro-1-isopropyl-1H-benzo[d]imidazol-2-yl)oxazolidin-2-one], for which, in assay [1], the IC50 lay within 0.04 to 0.15 µM. Also, in the assay with 22RV1 cells, the GI50 lay in the range of 0.45 to 3 µM.

As to `Cc1c(-c2nc(N[C@@H]3C[C@H]4CO[C@H](O4)[C@H]3O)ncc2F)sc2c(C)c(C(C)(C)O)cnc12` [Compound 278, (1S,3R,4S,5R)-3-((5-fluoro-4-(6-(2-hydroxypropan-2-yl)-3,7-dimethylthieno[3,2-b]pyridin-2-yl)pyrimidin-2-yl)amino)-6,8-dioxabicyclo[3.2.1]octan-4-ol], the concentration for half-maximal inhibition (IC50) in assay [1] was at most 0.04 µM. Further, the GI50 in the assay on 22RV1 cells is at most 0.12 µM.

`Cc1c(C(C)(C)O)nnc2c(F)cc(-c3nc(N[C@@H]4C[C@H]5CO[C@H](O5)[C@H]4O)ncc3Cl)cc12` [Compound 279, (1S,3R,4S,5R)-3-((5-chloro-4-(8-fluoro-3-(2-hydroxypropan-2-yl)-4-methylcinnolin-6-yl)pyrimidin-2-yl)amino)-6,8-dioxabicyclo[3.2.1]octan-4-ol]: in assay [1], the IC50 lay in the range of 0.15 to 1 µM. The concentration for 50% growth inhibition (GI50) in the assay on 22RV1 cells was at most 0.12 µM.

With `Cc1c(C(C)(C)O)nnc2c(F)cc(-c3nc(N[C@@H]4C[C@H]5CO[C@H](O5)[C@H]4O)ncc3F)cc12` [Compound 280, (1S,3R,4S,5R)-3-((5-fluoro-4-(8-fluoro-3-(2-hydroxypropan-2-yl)-4-methylcinnolin-6-yl)pyrimidin-2-yl)amino)-6,8-dioxabicyclo[3.2.1]octan-4-ol], the concentration for half-maximal inhibition (IC50) in assay [1] fell in the range of 0.15 to 1 µM. Further, the concentration for 50% growth inhibition (GI50) in the assay with 22RV1 cells is at most 0.12 µM.

For `Cc1c(C(C)(C)O)cnc2c(Cl)cc(-c3nc(N[C@@H]4C[C@H]5CO[C@H](O5)[C@H]4O)ncc3F)cc12` [Compound 283, (1S,3R,4S,5R)-3-((4-(8-chloro-3-(2-hydroxypropan-2-yl)-4-methylquinolin-6-yl)-5-fluoropyrimidin-2-yl)amino)-6,8-dioxabicyclo[3.2.1]octan-4-ol], the IC50 in assay [1] is at most 0.04 µM. Also, the 50% growth inhibitory concentration (GI50) in the assay on 22RV1 cells is at most 0.12 µM.

In the case of `Cc1c(C(C)(C)O)cnc2c(Cl)cc(-c3nc(N[C@@H]4C[C@H]5CO[C@H](O5)[C@H]4O)ncc3Cl)cc12` [Compound 284, (1S,3R,4S,5R)-3-((5-chloro-4-(8-chloro-3-(2-hydroxypropan-2-yl)-4-methylquinolin-6-yl)pyrimidin-2-yl)amino)-6,8-dioxabicyclo[3.2.1]octan-4-ol], the IC50 in assay [1] was at most 0.04 µM. Further, in the assay with 22RV1 cells, the 50% growth inhibitory concentration (GI50) was at most 0.12 µM.

As for `CC(C)(O)c1cnc2c(Cl)cc(-c3nc(N[C@@H]4C[C@H]5CO[C@H](O5)[C@H]4O)ncc3F)cc2c1Cl` [Compound 285, (1S,3R,4S,5R)-3-((4-(4,8-dichloro-3-(2-hydroxypropan-2-yl)quinolin-6-yl)-5-fluoropyrimidin-2-yl)amino)-6,8-dioxabicyclo[3.2.1]octan-4-ol], the IC50 in assay [1] was at most 0.04 µM. The GI50 in the assay with 22RV1 cells is at most 0.12 µM.

As for `CC(C)(O)c1cnc2c(Cl)cc(-c3nc(N[C@@H]4C[C@H]5CO[C@H](O5)[C@H]4O)ncc3Cl)cc2c1Cl` [Compound 286, (1S,3R,4S,5R)-3-((5-chloro-4-(4,8-dichloro-3-(2-hydroxypropan-2-yl)quinolin-6-yl)pyrimidin-2-yl)amino)-6,8-dioxabicyclo[3.2.1]octan-4-ol], in assay [1], the IC50 is at most 0.04 µM. The GI50 in the assay on 22RV1 cells was at most 0.12 µM.

For `Cc1c(CN2CCC[C@@H](O)C2)n(C(C)C)c2cc(-c3nc(N[C@@H]4C[C@H]5CO[C@H](O5)[C@H]4O)ncc3F)ccc2c1=O` [Compound 291, 7-(5-fluoro-2-(((1S,3R,4S,5R)-4-hydroxy-6,8-dioxabicyclo[3.2.1]octan-3-yl)amino)pyrimidin-4-yl)-2-(((R)-3-hydroxypiperidin-1-yl)methyl)-1-isopropyl-3-methylquinolin-4(1H)-one], the IC50 in assay [1] was in the range of 0.15 to 1 µM. Besides, the GI50 with 22RV1 cells was 0.12 to 0.45 µM.

In the case of `Cc1c(CN2CC[C@@H](F)C2)n(C(C)C)c2cc(-c3nc(N[C@@H]4C[C@H]5CO[C@H](O5)[C@H]4O)ncc3F)ccc2c1=O` [Compound 292, 7-(5-fluoro-2-(((1S,3R,4S,5R)-4-hydroxy-6,8-dioxabicyclo[3.2.1]octan-3-yl)amino)pyrimidin-4-yl)-2-(((R)-3-fluoropyrrolidin-1-yl)methyl)-1-isopropyl-3-methylquinolin-4(1H)-one], the half-inhibitory concentration (IC50) in assay [1] fell in the range of 0.04 to 0.15 µM. Further, the 50% growth inhibitory concentration (GI50) with 22RV1 cells was 0.12 to 0.45 µM.

With `CCCc1cn(C)c(=O)c2ccc(-c3nc(N[C@@H]4C[C@H]5CO[C@H](O5)[C@H]4O)ncc3Cl)cc12` [Compound 294, 6-(5-chloro-2-(((1S,3R,4S,5R)-4-hydroxy-6,8-dioxabicyclo[3.2.1]octan-3-yl)amino)pyrimidin-4-yl)-2-methyl-4-propylisoquinolin-1(2H)-one], the IC50 in assay [1] was 0.15 to 1 µM. For the same compound, the 50% growth inhibitory concentration (GI50) in the assay on 22RV1 cells lay within 0.45 to 3 µM.

For the compound `CC(C)(O)c1cnc2cc(-c3nc(N[C@@H]4C[C@H]5CO[C@H](O5)[C@H]4O)ncc3Cl)cc(F)c2n1` [Compound 295, (1S,3R,4S,5R)-3-((5-chloro-4-(8-fluoro-2-(2-hydroxypropan-2-yl)quinoxalin-6-yl)pyrimidin-2-yl)amino)-6,8-dioxabicyclo[3.2.1]octan-4-ol], the IC50 in assay [1] fell in the range of 0.15 to 1 µM. In the assay on 22RV1 cells, the concentration for 50% growth inhibition (GI50) was over 3 µM.
